Key:
[1] = molecular target: T1, Phosphatidylinositol 3,4,5-trisphosphate 5-phosphatase 1 (Homo sapiens, UniProt Q92835); experiment: Inhibition of human SHIP-1 (397 to 715 residues) catalytic domain expressed in Rosetta DE3 BL21 cells using 1-(1,2-dioctanoylphosphatidyl) inositol-3,4,5-trisphosphate as substrate by malachite green based spectramax microplate reader analysis
T1 sequence (Q92835 whole entry): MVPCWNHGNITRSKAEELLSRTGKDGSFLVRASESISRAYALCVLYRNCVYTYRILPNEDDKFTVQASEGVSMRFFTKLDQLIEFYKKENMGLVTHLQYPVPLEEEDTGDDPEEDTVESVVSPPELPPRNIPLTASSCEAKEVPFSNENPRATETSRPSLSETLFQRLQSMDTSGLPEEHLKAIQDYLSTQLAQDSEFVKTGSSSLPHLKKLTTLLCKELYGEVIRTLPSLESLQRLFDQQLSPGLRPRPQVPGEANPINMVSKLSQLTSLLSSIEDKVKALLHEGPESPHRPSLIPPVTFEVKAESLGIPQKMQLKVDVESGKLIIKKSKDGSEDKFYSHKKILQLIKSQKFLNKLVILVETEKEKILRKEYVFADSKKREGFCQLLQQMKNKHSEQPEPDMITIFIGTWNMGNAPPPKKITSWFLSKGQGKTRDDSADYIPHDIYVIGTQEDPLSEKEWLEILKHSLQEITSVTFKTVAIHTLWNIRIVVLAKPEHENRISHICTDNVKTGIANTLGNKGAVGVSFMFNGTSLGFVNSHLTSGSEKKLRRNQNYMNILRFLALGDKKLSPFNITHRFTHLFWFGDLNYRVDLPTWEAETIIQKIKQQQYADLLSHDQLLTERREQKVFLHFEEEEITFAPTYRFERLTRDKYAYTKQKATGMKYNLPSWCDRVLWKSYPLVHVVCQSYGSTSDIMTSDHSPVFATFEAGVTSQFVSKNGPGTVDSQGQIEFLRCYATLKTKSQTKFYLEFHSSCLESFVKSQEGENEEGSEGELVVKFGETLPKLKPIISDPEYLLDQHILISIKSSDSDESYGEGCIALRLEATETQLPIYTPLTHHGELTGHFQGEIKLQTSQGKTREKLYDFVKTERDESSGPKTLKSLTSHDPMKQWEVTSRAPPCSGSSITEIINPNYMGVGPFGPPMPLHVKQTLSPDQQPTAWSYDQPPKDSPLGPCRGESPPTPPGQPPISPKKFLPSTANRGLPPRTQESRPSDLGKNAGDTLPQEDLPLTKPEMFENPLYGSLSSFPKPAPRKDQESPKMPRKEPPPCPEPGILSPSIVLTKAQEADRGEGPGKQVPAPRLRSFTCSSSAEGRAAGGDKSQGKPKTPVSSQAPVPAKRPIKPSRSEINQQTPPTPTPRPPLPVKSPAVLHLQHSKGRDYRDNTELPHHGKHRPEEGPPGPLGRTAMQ

[2] = molecular target: T1, Phosphatidylinositol 3,4,5-trisphosphate 5-phosphatase 1; experiment: Inhibition of SHIP-1 (unknown origin) using PtdIns(3,4,5)P3 as substrate by malachite green solution based […] analysis
[3] = molecular target: T1, Phosphatidylinositol 3,4,5-trisphosphate 5-phosphatase 1; experiment: Inhibition of recombinant SHIP-1 (unknown origin) using PtdIns(3,4,5)P3 as substrate incubated for 30 mins by malachite green solution based analysis
[4] = tested on: HMC3; experiment: cells; conditions: Homo sapiens, HMC3, 48 h
[5] = molecular target: T1, Phosphatidylinositol 3,4,5-trisphosphate 5-phosphatase 1; experiment: Competitive inhibition of human SHIP-1 (397 to 715 residues) catalytic domain expressed in Rosetta DE3 BL21 cells assessed as inhibition constant by Lineweaver-Burk plot analysis; type: cell-based
[6] = Cytotoxicity against human HMC3 cells assessed as cell count incubated for 48 hrs by Hoechst-33342 staining based analysis; type: toxicity
[7] = tested on: HMC3; experiment: cells; conditions: Homo sapiens, HMC3, 48 h; remark: listed apart in the source
[8] = molecular target: T2, Phosphatidylinositol 3,4,5-trisphosphate 5-phosphatase 2 (Homo sapiens, UniProt O15357); experiment: Inhibition of recombinant SHIP-2 (unknown origin) using PtdIns(3,4,5)P3 as substrate incubated for 30 mins by malachite green solution based analysis
T2 sequence (O15357 whole entry): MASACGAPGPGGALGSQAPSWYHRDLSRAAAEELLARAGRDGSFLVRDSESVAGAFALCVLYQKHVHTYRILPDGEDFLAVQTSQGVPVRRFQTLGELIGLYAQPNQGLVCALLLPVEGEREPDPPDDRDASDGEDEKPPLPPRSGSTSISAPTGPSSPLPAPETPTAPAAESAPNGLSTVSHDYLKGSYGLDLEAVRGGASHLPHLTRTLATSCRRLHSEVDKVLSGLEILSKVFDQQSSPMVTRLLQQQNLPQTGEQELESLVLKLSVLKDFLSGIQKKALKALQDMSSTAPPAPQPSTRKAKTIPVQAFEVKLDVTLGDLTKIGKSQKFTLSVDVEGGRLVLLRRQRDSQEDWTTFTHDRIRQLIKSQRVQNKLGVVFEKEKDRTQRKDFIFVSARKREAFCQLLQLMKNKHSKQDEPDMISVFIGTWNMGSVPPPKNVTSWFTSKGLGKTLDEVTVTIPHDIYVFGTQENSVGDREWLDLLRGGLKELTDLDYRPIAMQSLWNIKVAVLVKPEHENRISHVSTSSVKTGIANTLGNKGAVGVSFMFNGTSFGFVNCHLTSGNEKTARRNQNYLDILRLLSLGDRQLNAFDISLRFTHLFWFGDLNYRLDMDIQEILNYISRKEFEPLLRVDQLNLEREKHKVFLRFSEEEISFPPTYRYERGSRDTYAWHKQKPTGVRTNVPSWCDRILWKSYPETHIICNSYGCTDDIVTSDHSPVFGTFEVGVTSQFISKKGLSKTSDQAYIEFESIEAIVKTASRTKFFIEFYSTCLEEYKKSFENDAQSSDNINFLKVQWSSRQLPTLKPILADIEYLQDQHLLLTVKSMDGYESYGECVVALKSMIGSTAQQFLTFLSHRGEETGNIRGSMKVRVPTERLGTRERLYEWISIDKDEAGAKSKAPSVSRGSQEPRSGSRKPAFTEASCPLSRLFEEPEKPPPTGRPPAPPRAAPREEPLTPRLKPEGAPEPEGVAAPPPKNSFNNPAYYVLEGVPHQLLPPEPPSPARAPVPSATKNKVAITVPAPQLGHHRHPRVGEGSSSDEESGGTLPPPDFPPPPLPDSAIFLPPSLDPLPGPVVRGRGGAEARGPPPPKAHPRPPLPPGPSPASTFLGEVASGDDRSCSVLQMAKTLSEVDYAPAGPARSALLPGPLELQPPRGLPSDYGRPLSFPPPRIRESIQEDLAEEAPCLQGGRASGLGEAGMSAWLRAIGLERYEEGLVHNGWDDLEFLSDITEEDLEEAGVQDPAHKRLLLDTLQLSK

[9] = molecular target: T1, Phosphatidylinositol 3,4,5-trisphosphate 5-phosphatase 1; experiment: Inhibition of SHIP-1 (unknown origin) by malachite green solution based […] analysis
[10] = molecular target: T2, Phosphatidylinositol 3,4,5-trisphosphate 5-phosphatase 2; experiment: Inhibition of human SHIP-2 (420 to 732 residues) catalytic domain expressed in Rosetta DE3 BL21 cells using -(1,2-dioctanoylphosphatidyflinosito1-3,4,5-trisphosphate as substrate by malachite green based spectramax microplate reader analysis

Row | Compound | IC50 [1] | further results
1 | Cc1oc(-c2ccccc2Cl)nc1Cn1cccc1C1=NC(c2ccccc2)CO1 (stereo not given) | 46.6 µM | –
2 | N#CC1=C2N=C(N)c3ccccc3N2C2=C(C(=O)CCC2)C1c1cccc(Cl)c1 (stereo not given) | 15.4 µM | –
3 | CC(C)CCC[C@@H](C)[C@H]1CC[C@H]2[C@@H]3CC[C@H]4C[C@H](N)CC[C@]4(C)[C@H]3CC[C@]12C | – | IC50 [2]: 13.9 µM
4 | CSc1ccc2c(c1)c(CCN)c(C)n2Cc1ccccc1Cl | – | IC50 [3]: 500 µM
5 | N#CC1=C2N=C(N)c3ccccc3N2C2=C(C(=O)CCC2)C1c1cccnc1 (stereo not given) | 65.5 µM | –
6 | N#CC1=C2N=C(N)c3ccccc3N2C2=C(C(=O)CCC2)C1c1ccc(-c2ccccc2)cc1 (stereo not given) | 6.1 µM | EC50 [4]: 2000 nM; Ki [5]: 3.2 µM; IC50 at 48 h [6]: 19.9 µM; EC50 [7]: 20 µM
7 | N#CC1=C2N=C(N)c3ccccc3N2C2=C(C(=O)CCC2)C1c1cc2ccccc2s1 (stereo not given) | 40.2 µM | –
8 | CC1(C)CC(=O)C2=C(C1)N1C(=C(C#N)C2c2ccc(-c3ccccc3)cc2)N=C(N)c2ccccc21 (stereo not given) | 17.7 µM | –
9 | O[C@H](c1cc(-c2ccccc2)nc2c1ccc1ccccc12)[C@@H]1CCCCN1 | – | IC50 [3]: 30 µM; IC50 [8]: 30 µM
10 | C[C@@]12CCC[C@H]1[C@@H]1CC[C@H]3C[C@H](N)[C@H](N)C[C@]3(C)[C@H]1CC2 | – | IC50 [9]: 6 µM
11 | N#CC1=C2N=C(N)c3ccccc3N2C2=C(C(=O)CCC2)C1c1nc2ccccc2s1 (stereo not given) | > 40 µM | –
12 | N#CC1=C2N=C(N)c3ccccc3N2C2=C(C(=O)CCC2)C1c1ccc(Cl)cc1Cl (stereo not given) | 39 µM | –
13 | N#CC1=C2N=C(N)c3ccccc3N2C2=C(C(=O)CC(c3cccs3)C2)C1c1cccnc1 (stereo not given) | 86.8 µM | IC50 [10]: > 200 µM
14 | N#CC1=C2N=C(N)c3ccccc3N2C2=C(C(=O)CCC2)C1c1ccc(F)c(F)c1 (stereo not given) | > 40 µM | –
15 | N#CC1=C2N=C(N)c3ccccc3N2C2=C(C(=O)CCC2)C1c1cc2ccccc2o1 (stereo not given) | 28.2 µM | –
16 | N#CC1=C2N=C(N)c3ccccc3N2C2=C(C(=O)CCC2)C1c1cccc([N+](=O)[O-])c1 (stereo not given) | 36.7 µM | –
17 | O[C@H](c1cc(C23CC4CC(CC(C4)C2)C3)nc2c(Cl)cc(Cl)cc12)[C@@H]1CCCCN1 | – | IC50 [3]: 63 µM; IC50 [8]: 35 µM
18 | CC(C)c1ccc(C2C(C#N)=C3N=C(O)c4ccccc4N3C3=C2C(=O)CCC3)cc1 (stereo not given) | 33.6 µM | –
19 | CC(C)c1ccc(C2C(C#N)=C3N=C(N)c4ccccc4N3C3=C2C(=O)CC(C)(C)C3)cc1 (stereo not given) | 10.2 µM | –
20 | C[C@@]12CCC[C@H]1[C@@H]1CC[C@H]3C[C@H](N)CC[C@]3(C)[C@H]1CC2 | – | IC50 [9]: 16 µM
21 | CC(=O)C1=C(C)Nc2sc(C(=O)c3ccc(Cl)c(Cl)c3)c(N)c2C1c1cccnc1 (stereo not given) | 46.7 µM | –
22 | N#CC1=C2N=C(N)c3ccccc3N2C2=C(C(=O)CCC2)C1c1cc(Br)ccc1F (stereo not given) | 23.4 µM | –
23 | CC(C)c1ccc(C2C(C#N)=C3N=C(N)c4ccccc4N3C3=C2C(=O)CCC3)cc1 (stereo not given) | 13.2 µM | –
